Data on 1 compound can be found in paper PMC3382171 (PLoS ONE, 2012).

Test in all cases: biochemical
Design in all cases: Invitrogen SelectScreen kinase panel, percent inhibition at 1 uM, ATP at Km
Details in all cases: read-out: Invitrogen KSS %Inh at 1 µM

Test [1] has as its target PRKD2 (PKD2) (Homo sapiens, UniProt Q9BZL6). In short, it runs like this:
(§1)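 Commercial kinase panel screens run with ATP at the Km for each kinase. Compounds tested at 1 µM final concentration; values are % inhibition of phosphorylation relative to control.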

Test [2] has as its target INSRR (IRR) (Homo sapiens, UniProt P14616). The procedure, abridged:
as §1

The target of test [3] is ERBB2 (HER2) (Homo sapiens, UniProt P04626). The procedure, abridged: as §1
Sequence of ERBB2 (HER2) (P04626 whole entry): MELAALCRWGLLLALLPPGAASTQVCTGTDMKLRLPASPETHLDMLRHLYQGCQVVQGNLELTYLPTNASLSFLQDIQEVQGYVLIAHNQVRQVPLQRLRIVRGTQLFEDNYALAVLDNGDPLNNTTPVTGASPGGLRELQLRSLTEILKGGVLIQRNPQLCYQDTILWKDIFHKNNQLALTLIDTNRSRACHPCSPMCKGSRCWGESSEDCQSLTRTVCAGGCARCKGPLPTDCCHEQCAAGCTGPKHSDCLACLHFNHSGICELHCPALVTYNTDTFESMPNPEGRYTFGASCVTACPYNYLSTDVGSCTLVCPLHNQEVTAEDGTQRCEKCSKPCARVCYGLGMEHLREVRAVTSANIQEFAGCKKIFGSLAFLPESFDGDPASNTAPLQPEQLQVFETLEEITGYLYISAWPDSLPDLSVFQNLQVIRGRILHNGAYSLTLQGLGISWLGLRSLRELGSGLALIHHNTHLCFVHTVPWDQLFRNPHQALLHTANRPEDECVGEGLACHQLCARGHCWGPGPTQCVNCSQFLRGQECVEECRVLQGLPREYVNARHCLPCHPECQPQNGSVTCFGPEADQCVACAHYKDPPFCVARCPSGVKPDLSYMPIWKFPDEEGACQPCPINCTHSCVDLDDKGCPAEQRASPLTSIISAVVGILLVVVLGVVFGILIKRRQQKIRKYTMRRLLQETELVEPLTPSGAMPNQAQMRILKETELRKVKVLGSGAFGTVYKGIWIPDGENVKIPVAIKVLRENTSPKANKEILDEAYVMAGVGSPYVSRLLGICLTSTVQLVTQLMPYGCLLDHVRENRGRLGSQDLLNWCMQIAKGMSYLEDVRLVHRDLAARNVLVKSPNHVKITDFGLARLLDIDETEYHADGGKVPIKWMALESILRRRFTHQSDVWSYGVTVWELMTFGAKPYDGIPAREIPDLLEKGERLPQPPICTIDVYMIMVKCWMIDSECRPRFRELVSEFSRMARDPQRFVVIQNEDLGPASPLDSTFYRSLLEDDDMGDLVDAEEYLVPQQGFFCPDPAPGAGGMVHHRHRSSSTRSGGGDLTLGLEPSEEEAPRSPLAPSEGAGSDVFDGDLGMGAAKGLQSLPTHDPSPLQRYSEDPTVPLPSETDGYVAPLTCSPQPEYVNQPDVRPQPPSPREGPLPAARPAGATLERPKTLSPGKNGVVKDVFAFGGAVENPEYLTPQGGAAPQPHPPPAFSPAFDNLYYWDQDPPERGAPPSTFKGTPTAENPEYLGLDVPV
Test [4] concerns the target TYRO3 (RSE) (Homo sapiens, UniProt Q06418). In short, it runs like this:
as §1

For test [5], the target named is HIPK4 (Homo sapiens, UniProt Q8NE63). The procedure, abridged:
as §1

The target of test [6] is FES (FPS) (Homo sapiens, UniProt P07332). In short, it runs like this:
as §1

Test [7] deals with CSNK1D (CK1 delta) (Homo sapiens, UniProt P48730). The procedure, abridged:
as §1

Test [8] has as its target SGKL (SGK3) (Homo sapiens, UniProt Q96BR1). In short, it runs like this: as §1
For test [9], the target named is ABL2 (Arg) (Homo sapiens, UniProt P42684). In short, it runs like this:
as §1

Test [10] addresses ZAP70 (Homo sapiens, UniProt P43403). The procedure, abridged: as §1
Test [11] has as its target MYLK2 (skMLCK) (Homo sapiens, UniProt Q9H1R3). In short, it runs like this:
as §1

The target in test [12] is T1, PRKCB1 (PKC beta I) (Homo sapiens, UniProt P05771).
T1 construct: gene PRKCB; isoform beta I
The procedure, abridged: as §1

For test [13], the target named is NEK7 (Homo sapiens, UniProt Q8TDX7). In short, it runs like this:
as §1

The target of test [14] is YES1 (Homo sapiens, UniProt P07947). The procedure, abridged:
as §1

The target of test [15] is MAP2K1 (MEK1) (Homo sapiens, UniProt Q02750). In short, it runs like this: as §1
Test [16] deals with STK3 (MST2) (Homo sapiens, UniProt Q13188). The procedure, abridged: as §1
Sequence of STK3 (MST2) (Q13188 whole entry): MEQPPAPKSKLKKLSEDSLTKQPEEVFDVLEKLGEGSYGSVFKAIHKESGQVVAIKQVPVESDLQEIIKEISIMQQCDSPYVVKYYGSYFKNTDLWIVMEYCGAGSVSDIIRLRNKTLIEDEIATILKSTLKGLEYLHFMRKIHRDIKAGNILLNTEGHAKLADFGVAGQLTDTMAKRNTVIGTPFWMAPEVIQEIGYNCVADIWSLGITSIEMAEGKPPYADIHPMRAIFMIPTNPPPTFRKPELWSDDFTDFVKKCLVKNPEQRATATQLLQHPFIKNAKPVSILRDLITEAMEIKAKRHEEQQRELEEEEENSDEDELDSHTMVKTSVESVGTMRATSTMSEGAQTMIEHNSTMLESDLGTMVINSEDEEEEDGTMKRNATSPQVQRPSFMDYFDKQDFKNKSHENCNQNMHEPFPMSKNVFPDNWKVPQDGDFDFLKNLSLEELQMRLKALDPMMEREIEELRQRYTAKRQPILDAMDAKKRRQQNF
The target in test [17] is PTK2 (FAK) (Homo sapiens, UniProt Q05397). In short, it runs like this: as §1
In test [18] the target is MAPKAPK3 (Homo sapiens, UniProt Q16644). The procedure, abridged: as §1
For test [19], the target named is GRK4 (Homo sapiens, UniProt P32298). In short, it runs like this:
as §1

Test [20] concerns the target CDK1/cyclinB (Homo sapiens, UniProt P06493). The procedure, abridged:
as §1

The target in test [21] is MET (cMet) (Homo sapiens, UniProt P08581). The procedure, abridged: as §1
Test [22] has as its target KDR (VEGFR2) (Homo sapiens, UniProt P35968). The procedure, abridged:
as §1

Sequence of NEK7 (Q8TDX7 whole entry): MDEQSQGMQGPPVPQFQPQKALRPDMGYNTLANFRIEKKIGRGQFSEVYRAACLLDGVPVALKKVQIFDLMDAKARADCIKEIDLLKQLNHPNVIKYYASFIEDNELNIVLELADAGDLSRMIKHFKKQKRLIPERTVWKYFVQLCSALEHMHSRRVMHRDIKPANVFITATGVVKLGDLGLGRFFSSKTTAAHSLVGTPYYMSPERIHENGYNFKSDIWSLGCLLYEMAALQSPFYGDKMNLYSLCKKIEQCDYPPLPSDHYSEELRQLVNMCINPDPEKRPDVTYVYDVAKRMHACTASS
Sequence of INSRR (IRR) (P14616 whole entry): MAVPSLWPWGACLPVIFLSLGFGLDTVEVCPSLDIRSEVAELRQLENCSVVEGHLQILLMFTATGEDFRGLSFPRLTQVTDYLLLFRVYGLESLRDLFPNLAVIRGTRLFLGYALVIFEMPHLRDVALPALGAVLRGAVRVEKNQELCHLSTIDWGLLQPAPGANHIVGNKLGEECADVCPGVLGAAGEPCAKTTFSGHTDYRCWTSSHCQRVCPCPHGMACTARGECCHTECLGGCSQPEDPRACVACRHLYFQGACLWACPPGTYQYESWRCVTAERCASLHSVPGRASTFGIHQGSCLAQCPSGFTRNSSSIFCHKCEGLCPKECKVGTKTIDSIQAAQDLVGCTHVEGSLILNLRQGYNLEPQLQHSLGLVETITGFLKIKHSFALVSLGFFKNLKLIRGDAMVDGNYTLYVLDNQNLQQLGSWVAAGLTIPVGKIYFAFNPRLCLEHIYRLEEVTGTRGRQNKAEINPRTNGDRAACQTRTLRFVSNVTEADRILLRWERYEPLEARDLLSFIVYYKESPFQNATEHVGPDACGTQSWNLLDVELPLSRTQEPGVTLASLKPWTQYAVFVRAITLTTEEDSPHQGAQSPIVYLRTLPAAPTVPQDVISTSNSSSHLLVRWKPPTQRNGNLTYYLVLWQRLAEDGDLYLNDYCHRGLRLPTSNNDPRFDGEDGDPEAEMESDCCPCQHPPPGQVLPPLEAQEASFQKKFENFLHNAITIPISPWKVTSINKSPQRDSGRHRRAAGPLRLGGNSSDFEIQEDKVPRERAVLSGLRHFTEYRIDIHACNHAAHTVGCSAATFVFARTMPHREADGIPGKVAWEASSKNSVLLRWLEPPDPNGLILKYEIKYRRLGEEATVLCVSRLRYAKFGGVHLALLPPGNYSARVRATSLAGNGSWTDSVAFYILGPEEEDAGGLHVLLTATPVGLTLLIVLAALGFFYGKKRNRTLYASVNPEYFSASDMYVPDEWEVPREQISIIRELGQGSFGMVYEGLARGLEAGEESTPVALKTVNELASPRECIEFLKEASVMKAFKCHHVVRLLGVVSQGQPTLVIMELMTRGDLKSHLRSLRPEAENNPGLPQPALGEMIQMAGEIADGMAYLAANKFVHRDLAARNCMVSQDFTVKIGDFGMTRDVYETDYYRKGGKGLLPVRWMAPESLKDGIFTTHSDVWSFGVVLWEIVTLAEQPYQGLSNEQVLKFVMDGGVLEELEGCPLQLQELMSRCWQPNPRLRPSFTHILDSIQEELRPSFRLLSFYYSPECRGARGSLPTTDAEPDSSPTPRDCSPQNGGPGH
Sequence of ABL2 (Arg) (P42684 whole entry): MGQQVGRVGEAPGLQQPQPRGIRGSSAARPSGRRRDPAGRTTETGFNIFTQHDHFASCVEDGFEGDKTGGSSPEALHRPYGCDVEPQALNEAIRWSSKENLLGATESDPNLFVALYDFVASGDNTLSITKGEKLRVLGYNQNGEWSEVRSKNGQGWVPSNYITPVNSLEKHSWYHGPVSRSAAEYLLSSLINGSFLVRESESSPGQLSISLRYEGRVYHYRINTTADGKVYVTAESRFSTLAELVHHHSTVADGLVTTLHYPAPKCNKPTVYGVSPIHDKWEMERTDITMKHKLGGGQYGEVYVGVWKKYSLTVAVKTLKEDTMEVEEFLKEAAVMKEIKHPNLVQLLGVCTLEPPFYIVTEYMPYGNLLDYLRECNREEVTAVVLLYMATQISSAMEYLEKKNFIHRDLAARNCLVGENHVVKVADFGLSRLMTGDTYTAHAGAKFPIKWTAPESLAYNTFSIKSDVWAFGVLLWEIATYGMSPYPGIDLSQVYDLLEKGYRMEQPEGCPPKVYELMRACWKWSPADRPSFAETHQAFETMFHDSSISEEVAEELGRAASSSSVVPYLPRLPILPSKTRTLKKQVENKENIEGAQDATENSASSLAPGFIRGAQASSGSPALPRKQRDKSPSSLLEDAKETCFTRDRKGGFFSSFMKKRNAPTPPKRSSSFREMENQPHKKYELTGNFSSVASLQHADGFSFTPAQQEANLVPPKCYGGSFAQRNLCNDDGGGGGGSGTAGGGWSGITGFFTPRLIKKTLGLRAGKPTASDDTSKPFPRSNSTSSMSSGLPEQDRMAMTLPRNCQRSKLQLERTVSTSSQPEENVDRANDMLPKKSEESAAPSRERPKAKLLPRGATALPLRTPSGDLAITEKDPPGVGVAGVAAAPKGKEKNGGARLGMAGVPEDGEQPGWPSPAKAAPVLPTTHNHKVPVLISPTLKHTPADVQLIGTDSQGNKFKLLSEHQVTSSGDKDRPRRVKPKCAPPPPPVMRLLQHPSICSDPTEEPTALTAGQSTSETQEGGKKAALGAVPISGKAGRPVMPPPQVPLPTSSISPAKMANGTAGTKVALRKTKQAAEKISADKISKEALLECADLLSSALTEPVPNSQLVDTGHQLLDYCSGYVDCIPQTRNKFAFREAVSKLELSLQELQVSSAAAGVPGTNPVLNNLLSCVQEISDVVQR
Sequence of SGKL (SGK3) (Q96BR1 whole entry): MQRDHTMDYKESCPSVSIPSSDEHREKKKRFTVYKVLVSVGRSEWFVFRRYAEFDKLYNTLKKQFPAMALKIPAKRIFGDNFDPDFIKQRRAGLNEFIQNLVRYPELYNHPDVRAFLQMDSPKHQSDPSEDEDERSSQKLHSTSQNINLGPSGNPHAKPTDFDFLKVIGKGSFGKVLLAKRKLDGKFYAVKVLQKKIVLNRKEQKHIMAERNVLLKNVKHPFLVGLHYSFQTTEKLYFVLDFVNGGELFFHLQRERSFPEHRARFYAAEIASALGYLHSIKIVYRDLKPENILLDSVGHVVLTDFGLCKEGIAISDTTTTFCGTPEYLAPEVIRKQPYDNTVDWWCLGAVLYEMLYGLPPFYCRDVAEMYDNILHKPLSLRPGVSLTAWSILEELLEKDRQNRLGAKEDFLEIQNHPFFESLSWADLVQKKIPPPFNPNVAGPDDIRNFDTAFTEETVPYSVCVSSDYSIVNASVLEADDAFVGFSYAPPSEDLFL

For the compound `N#CCCNc1nccc(-c2cn(CC(F)F)nc2-c2cnc3[nH]ccc3c2)n1` [RAFi, PF-04880594], the inhibition at 1 µM in test [1] was 40%; in test [2], 3%; in test [3] it was 10%; in test [4], 10%; in [5] it was 8%; in test [6], -11%. Besides, the inhibition at 1 µM is 95% in [7]; -1% in test [8]; -1% in test [9]; 3% in [10]; 20% in test [11]; 36% in [12]. For the same compound, the inhibition at 1 µM in [13] is 23%; in [14] it was 16%; in [15] it was 24%; in test [16], 9%; in [17] it was 12%; in [18] it was 12%. Further, the inhibition at 1 µM in test [19] is -18%; in [20], -1%; in [21], 12%; in test [22] it was 33%.
